Experimental findings from patent publication US12552783B2, “Modulators of proteolysis and associated methods of use” (Arvinas Operations, Inc., priority 2018, dated 2026) are described below.

SMILES strings stand for the structures. Some results are limits rather than exact numbers.

The assay deals with KRas (Homo sapiens, UniProt P01116, G12C). In words: KRas degradation in NCI-H2030 cells by Western blot, normalized to GAPDH (data of Table 14). Type of assay: cell-based. Details: host or cells: NCI-H2030. To be noted: for Dmax: NCI-H2030; for Percent Degradation at Indicated Concentration (μM): H2030. The method in brief:
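After overnight adherence and 24 h without FBS, compounds added at 0.3, 1 or 3 μM (0.1% DMSO) for 24 h (VHL-based) or 72 h (others). Western blot of RIPA lysates, KRas signal over GAPDH relative to DMSO; DC50 and DMax derived, or <25% scored visually.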

The term Dmax denotes the largest share of the target that was removed. Low values mean a partial loss of target, high ones a fuller loss of target. Take `CCC(=O)N1CCN(c2nc(NCCC(=O)N(C)CCOCCOCCOCCOc3cc(-c4scnc4C)ccc3CNC(=O)[C@@H]3C[C@@H](O)CN3C(=O)[C@@H](c3cc(C)no3)C(C)C)nc3c(F)c(-c4cc(O)cc5ccccc45)c(Cl)cc23)CC1` [compound 334, (2S,4R)-N-(2-((15-((6-chloro-8-fluoro-7-(3-hydroxynaphthalen-1-yl)-4-(4-propionylpiperazin-1-yl)quinazolin-2-yl)amino)-12-methyl-13-oxo-3,6,9-trioxa-12-azapentadecyl)oxy)-4-(4-methylthiazol-5-yl)benzyl)-4-hydroxy-1-((R)-3-methyl-2-(3-methylisoxazol-5-yl)butanoyl)pyrrolidine-2-carboxamide]: where the note is “H2030 cells, 0.3 μM”, the “Percent Degradation at Indicated Concentration (μM): 0.3” value (from here on “Percent Degradation … 0.3”) is reported as “C (C ≤ 35)”. Besides, where the note is “H2030 cells, 1 μM”, the “Percent Degradation at Indicated Concentration (μM): 1” value (“Percent Degradation … 1” below) is “C (C ≤ 35)”. Besides, the “Percent Degradation at Indicated Concentration (μM): 3” value (“Percent Degradation … (μM): 3” for short) (H2030 cells, 3 μM) is “C (C ≤ 35)”. Besides, where the note is “H2030 cells”, the Dmax was not above 35%.
Take `CCC(=O)N1CCN(c2nc(NCCC(=O)N(C)CCOCCOCCOCCOc3cc(-c4scnc4C)ccc3CNC(=O)[C@@H]3C[C@@H](O)CN3C(=O)[C@H](c3cc(C)no3)C(C)C)nc3c(F)c(-c4cc(O)cc5ccccc45)c(Cl)cc23)CC1` [compound 335, (2S,4R)-N-(2-((15-((6-chloro-8-fluoro-7-(3-hydroxynaphthalen-1-yl)-4-(4-propionylpiperazin-1-yl)quinazolin-2-yl)amino)-12-methyl-13-oxo-3,6,9-trioxa-12-azapentadecyl)oxy)-4-(4-methylthiazol-5-yl)benzyl)-4-hydroxy-1-((S)-3-methyl-2-(3-methylisoxazol-5-yl)butanoyl)pyrrolidine-2-carboxamide]: the “Percent Degradation … 0.3” value (H2030 cells, 0.3 μM) is “C (C ≤ 35)”. The “Percent Degradation … 1” value (H2030 cells, 1 μM) is reported as “C (C ≤ 35)”. The “Percent Degradation … (μM): 3” value (H2030 cells, 3 μM) is “C (C ≤ 35)”. The compound further displayed a maximal degradation (Dmax) (H2030 cells) not above 35%.
`CCC(=O)N1CCN(c2nc(NCCC(=O)N(C)CCOCCOCCOCCOCCOc3cc(-c4scnc4C)ccc3CNC(=O)[C@@H]3C[C@@H](O)CN3C(=O)C(c3cc(C)no3)C(C)C)nc3c(F)c(-c4cc(O)cc5ccccc45)c(Cl)cc23)CC1` (stereo partly drawn) [compound 336, (2S,4R)-N-(2-((18-((6-chloro-8-fluoro-7-(3-hydroxynaphthalen-1-yl)-4-(4-propionylpiperazin-1-yl)quinazolin-2-yl)amino)-15-methyl-16-oxo-3,6,9,12-tetraoxa-15-azaoctadecyl)oxy)-4-(4-methylthiazol-5-yl)benzyl)-4-hydroxy-1-(3-methyl-2-(3-methylisoxazol-5-yl)butanoyl)pyrrolidine-2-carboxamide]: the “Percent Degradation … 0.3” value (H2030 cells, 0.3 μM) is “C (C ≤ 35)”. For the setting “H2030 cells, 1 μM”, the “Percent Degradation … 1” value was “C (C ≤ 35)”. In addition, the “Percent Degradation … (μM): 3” value (H2030 cells, 3 μM) was “C (C ≤ 35)”. The same compound gave a Dmax (H2030 cells) not above 35%.
`C=CC(=O)N1CCN(c2nc(NCCC(=O)N(C)CCOc3cc(-c4scnc4C)ccc3CNC(=O)[C@@H]3C[C@@H](O)CN3C(=O)[C@@H](c3cc(C)no3)C(C)C)nc3c(F)c(-c4cc(O)cc5ccccc45)c(Cl)cc23)CC1` [compound 337] came in with a Dmax not above 35%. The “Percent Degradation at Indicated Concentration (μM)” value (0.3 μM) is “C (Percent Degradation: C ≤ 35)”. For the same compound, the “Percent Degradation at Indicated Concentration (μM)” value (1 μM) is “C (Percent Degradation: C ≤ 35)”. For the same compound, the “Percent Degradation at Indicated Concentration (μM)” value (3 μM) is “C (Percent Degradation: C ≤ 35)”.
